Reference: ChEMBL document CHEMBL1201862, “PubChem BioAssay data set” (2004)
Calls of active or inactive are those of the source.

Experiments:
[1] = target: FAD-linked sulfhydryl oxidase ALR (Homo sapiens, UniProt P55789); experiment: inhibitors of human ALR sulfhydryl oxidase, dose response, biochemical, H2O2 detection, luminescence, cherry-pick (AID 493248)
[2] = tested on: Escherichia coli; experiment: microbe, parasite or virus in culture
[3] = target: T1, Cysteine protease ATG4B (Homo sapiens, UniProt Q9Y4P1); assay type: functional;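 note: Fluorescence-based dose-response confirmation assay measuring inhibition of ATG4B activity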
T1 sequence (Q9Y4P1 whole entry): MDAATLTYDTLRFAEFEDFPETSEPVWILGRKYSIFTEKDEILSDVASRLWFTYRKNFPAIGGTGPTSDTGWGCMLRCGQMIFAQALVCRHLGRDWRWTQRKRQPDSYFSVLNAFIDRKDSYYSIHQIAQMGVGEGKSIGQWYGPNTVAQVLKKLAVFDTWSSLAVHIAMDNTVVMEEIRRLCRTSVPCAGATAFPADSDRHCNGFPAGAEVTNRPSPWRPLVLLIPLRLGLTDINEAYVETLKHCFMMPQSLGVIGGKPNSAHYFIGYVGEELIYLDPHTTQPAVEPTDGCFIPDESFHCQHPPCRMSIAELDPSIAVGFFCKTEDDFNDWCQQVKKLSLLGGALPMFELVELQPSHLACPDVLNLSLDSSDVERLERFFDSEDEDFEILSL

[4] = target: Phospholipase A2 (Homo sapiens, UniProt P04054); assay type: functional;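 note: confirmatory dose-response counterscreen on phospholipase A2, testing hits that came from an ultra-high-throughput screen for ATG4B inhibitors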
[5] = tested on: Streptococcus sp. 'group A'; experiment: growth inhibition of control SK(-) GAS strain, dose response, counter-screen for streptokinase expression inhibitor project, luminescence, kanamycin, BacTiterGlo, confirmation (AID 1900); assay type: functional, organism-based
[6] = tested on: Streptococcus; experiment: Group A Streptococcus viability loss, dose response, counter-screen for streptokinase expression inhibitor project, luminescence, BacTiterGlo (AID 1915); assay type: functional, organism-based;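 note: potency for reduction of bacterial viability or growth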
[7] = target: 26S proteasome non-ATPase regulatory subunit 14 (Homo sapiens, UniProt O00487); experiment: inhibition of proteasome subunit RPN11 – biochemical, fluorescence polarization, uHTS hits, confirmation (AID 602368); assay type: functional
[8] = target: 72 kDa type IV collagenase (Homo sapiens, UniProt P08253); experiment: Dose Response validation of uHTS RPN11 inhibitor hits using a MMP-2 Fluorescence assay.; assay type: functional
[9] = target: Prothrombin (Bos taurus, UniProt P00735); experiment: thrombin inhibition, dose response, biochemical, fluorescence polarization, uHTS hits (AID 602369); assay type: functional
[10] = target: T2, Tyrosine-protein phosphatase non-receptor type 7 (Homo sapiens, UniProt P35236); assay type: functional
T2 sequence (P35236 whole entry): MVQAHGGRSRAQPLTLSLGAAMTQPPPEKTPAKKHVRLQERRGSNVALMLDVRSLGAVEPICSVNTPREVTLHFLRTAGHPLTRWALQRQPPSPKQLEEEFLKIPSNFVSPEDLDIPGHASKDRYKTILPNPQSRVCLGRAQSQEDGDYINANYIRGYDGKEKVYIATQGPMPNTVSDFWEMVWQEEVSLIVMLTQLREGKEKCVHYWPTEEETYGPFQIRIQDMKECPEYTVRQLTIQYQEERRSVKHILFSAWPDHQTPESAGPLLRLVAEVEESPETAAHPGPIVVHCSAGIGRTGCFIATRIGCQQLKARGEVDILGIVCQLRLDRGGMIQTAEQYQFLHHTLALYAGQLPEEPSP

[11] = target: Glyceraldehyde-3-phosphate dehydrogenase (Homo sapiens, UniProt P04406)
[12] = target: T3, Dual specificity protein phosphatase 6 (Rattus norvegicus, UniProt Q64346)
T3 sequence (Q64346 whole entry): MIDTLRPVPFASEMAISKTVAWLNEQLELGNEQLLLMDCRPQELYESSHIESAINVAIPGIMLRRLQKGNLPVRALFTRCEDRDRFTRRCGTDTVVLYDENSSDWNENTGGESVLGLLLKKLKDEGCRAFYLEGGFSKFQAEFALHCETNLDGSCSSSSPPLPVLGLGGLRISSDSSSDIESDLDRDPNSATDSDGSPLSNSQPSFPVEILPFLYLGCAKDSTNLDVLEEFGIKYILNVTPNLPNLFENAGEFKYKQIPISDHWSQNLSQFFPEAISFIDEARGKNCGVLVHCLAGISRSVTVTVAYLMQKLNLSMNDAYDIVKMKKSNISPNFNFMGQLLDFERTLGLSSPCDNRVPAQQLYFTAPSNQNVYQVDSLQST

[13] = target: T3, Dual specificity protein phosphatase 6; assay type: functional
[14] = target: Heat shock cognate 71 kDa protein (Homo sapiens, UniProt P11142); experiment: In Vitro Hsc70 Dose Response Fluorescence Polarization Assay. [Related pubchem assays: 1072 ]
[15] = target: Heat shock 70 kDa protein 1A (Homo sapiens, UniProt P0DMV8); experiment: Hsp70 inhibitors, SAR follow-up, biochemical, fluorescence polarization (AID 1072)
[16] = target: T3, Dual specificity protein phosphatase 6; experiment: MKP-3 phosphatase inhibitors, primary screen, biochemical, rat enzyme, in vitro (AID 425)
[17] = target: T4, Carboxy-terminal domain RNA polymerase II polypeptide A small phosphatase 1 (Homo sapiens, UniProt Q9GZU7); experiment: inhibitors of CTDSP1, concentration-response testing, biochemical assay, absorbance-based, actives from ultra-high-throughput screening (AID 540297); assay type: functional
T4 sequence (Q9GZU7 whole entry): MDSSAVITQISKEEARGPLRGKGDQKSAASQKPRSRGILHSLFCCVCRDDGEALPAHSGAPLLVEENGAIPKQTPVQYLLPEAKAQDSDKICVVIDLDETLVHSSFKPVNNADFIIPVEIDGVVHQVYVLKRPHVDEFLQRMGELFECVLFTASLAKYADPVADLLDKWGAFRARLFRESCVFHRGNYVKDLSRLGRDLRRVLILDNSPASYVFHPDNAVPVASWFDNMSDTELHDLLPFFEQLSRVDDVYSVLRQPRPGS

[18] = target: Voltage-dependent T-type calcium channel subunit alpha-1H (Homo sapiens, UniProt O95180); assay type: functional;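 note: channel activity triggered by adding a high calcium stimulation buffer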
[19] = target: Cytochrome P450 2D6 (Homo sapiens, UniProt P10635);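 note: CYP2D6 member of a cytochrome P450 panel assay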
[20] = target: Dual specificity tyrosine-phosphorylation-regulated kinase 1A (Rattus norvegicus, UniProt Q63470); assay type: biochemical, Homo sapiens

Chain of Glyceraldehyde-3-phosphate dehydrogenase (P04406 whole entry): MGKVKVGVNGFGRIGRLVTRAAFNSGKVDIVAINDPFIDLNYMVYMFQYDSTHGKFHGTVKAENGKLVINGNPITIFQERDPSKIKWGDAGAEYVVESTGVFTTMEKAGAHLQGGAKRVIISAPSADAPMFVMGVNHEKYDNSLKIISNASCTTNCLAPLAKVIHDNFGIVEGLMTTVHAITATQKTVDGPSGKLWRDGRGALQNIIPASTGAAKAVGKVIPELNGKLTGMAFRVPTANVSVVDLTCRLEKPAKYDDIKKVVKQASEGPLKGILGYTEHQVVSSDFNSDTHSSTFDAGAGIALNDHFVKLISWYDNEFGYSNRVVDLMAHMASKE
Chain of Phospholipase A2 (P04054 whole entry): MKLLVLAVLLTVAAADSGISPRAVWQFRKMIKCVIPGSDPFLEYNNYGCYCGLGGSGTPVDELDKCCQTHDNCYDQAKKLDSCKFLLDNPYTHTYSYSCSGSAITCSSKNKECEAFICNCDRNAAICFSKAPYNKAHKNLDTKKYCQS
Chain of Heat shock 70 kDa protein 1A (P0DMV8 whole entry): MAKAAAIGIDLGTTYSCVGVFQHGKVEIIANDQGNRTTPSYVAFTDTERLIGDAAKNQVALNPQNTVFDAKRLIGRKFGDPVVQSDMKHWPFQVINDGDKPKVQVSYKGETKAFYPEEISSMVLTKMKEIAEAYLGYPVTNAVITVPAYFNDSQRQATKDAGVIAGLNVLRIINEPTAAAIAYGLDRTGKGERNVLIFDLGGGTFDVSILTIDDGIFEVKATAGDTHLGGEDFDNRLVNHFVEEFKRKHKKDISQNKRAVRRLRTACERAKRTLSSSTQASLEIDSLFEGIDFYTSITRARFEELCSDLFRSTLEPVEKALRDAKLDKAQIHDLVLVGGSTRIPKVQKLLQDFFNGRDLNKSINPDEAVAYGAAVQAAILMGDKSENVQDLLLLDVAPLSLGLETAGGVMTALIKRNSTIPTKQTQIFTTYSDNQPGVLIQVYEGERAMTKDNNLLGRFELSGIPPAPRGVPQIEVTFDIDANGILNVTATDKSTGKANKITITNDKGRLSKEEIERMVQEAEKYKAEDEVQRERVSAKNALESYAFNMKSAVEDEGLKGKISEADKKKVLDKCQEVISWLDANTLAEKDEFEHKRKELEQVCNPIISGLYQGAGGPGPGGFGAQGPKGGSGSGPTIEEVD
Chain of Heat shock cognate 71 kDa protein (P11142 whole entry): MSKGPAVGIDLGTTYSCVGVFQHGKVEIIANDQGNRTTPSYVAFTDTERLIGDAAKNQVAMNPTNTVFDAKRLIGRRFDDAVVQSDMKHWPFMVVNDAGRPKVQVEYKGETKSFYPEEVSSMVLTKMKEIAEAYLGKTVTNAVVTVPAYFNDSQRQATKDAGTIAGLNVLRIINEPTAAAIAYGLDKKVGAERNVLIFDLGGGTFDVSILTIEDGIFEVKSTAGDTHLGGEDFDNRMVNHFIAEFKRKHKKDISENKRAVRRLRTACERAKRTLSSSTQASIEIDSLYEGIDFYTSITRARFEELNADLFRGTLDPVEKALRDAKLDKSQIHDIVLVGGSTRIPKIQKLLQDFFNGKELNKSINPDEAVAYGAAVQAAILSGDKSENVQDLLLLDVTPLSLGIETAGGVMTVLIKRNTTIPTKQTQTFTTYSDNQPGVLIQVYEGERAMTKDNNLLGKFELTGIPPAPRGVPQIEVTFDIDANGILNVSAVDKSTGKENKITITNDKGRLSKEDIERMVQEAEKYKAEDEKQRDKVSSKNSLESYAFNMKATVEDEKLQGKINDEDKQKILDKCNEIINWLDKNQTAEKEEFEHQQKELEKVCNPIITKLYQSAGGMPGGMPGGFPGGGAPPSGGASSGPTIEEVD
Chain of 72 kDa type IV collagenase (P08253 whole entry): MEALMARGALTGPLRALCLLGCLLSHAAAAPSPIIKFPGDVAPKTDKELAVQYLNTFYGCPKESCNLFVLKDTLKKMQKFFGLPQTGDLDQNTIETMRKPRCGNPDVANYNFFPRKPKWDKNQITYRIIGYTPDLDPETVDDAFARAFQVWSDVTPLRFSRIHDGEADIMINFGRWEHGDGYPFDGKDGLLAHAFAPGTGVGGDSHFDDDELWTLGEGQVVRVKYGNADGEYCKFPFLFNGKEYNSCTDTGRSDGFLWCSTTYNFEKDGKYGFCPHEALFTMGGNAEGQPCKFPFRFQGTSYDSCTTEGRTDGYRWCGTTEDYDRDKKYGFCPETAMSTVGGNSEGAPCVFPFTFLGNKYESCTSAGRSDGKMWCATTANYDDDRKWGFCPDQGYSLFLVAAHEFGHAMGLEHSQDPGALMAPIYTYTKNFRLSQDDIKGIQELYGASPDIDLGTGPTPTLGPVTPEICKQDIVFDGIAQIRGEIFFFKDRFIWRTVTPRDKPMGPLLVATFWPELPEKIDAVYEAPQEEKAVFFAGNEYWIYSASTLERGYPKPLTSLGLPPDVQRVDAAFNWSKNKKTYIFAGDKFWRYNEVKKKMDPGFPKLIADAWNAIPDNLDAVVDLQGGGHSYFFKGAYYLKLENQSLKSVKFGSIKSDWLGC
Chain of FAD-linked sulfhydryl oxidase ALR (P55789 whole entry): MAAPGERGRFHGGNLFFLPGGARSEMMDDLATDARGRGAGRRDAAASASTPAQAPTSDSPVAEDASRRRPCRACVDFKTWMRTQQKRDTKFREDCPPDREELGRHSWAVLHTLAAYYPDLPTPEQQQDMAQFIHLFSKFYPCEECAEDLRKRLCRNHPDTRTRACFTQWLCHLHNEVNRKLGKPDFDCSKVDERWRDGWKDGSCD
Chain of Voltage-dependent T-type calcium channel subunit alpha-1H (O95180 whole entry): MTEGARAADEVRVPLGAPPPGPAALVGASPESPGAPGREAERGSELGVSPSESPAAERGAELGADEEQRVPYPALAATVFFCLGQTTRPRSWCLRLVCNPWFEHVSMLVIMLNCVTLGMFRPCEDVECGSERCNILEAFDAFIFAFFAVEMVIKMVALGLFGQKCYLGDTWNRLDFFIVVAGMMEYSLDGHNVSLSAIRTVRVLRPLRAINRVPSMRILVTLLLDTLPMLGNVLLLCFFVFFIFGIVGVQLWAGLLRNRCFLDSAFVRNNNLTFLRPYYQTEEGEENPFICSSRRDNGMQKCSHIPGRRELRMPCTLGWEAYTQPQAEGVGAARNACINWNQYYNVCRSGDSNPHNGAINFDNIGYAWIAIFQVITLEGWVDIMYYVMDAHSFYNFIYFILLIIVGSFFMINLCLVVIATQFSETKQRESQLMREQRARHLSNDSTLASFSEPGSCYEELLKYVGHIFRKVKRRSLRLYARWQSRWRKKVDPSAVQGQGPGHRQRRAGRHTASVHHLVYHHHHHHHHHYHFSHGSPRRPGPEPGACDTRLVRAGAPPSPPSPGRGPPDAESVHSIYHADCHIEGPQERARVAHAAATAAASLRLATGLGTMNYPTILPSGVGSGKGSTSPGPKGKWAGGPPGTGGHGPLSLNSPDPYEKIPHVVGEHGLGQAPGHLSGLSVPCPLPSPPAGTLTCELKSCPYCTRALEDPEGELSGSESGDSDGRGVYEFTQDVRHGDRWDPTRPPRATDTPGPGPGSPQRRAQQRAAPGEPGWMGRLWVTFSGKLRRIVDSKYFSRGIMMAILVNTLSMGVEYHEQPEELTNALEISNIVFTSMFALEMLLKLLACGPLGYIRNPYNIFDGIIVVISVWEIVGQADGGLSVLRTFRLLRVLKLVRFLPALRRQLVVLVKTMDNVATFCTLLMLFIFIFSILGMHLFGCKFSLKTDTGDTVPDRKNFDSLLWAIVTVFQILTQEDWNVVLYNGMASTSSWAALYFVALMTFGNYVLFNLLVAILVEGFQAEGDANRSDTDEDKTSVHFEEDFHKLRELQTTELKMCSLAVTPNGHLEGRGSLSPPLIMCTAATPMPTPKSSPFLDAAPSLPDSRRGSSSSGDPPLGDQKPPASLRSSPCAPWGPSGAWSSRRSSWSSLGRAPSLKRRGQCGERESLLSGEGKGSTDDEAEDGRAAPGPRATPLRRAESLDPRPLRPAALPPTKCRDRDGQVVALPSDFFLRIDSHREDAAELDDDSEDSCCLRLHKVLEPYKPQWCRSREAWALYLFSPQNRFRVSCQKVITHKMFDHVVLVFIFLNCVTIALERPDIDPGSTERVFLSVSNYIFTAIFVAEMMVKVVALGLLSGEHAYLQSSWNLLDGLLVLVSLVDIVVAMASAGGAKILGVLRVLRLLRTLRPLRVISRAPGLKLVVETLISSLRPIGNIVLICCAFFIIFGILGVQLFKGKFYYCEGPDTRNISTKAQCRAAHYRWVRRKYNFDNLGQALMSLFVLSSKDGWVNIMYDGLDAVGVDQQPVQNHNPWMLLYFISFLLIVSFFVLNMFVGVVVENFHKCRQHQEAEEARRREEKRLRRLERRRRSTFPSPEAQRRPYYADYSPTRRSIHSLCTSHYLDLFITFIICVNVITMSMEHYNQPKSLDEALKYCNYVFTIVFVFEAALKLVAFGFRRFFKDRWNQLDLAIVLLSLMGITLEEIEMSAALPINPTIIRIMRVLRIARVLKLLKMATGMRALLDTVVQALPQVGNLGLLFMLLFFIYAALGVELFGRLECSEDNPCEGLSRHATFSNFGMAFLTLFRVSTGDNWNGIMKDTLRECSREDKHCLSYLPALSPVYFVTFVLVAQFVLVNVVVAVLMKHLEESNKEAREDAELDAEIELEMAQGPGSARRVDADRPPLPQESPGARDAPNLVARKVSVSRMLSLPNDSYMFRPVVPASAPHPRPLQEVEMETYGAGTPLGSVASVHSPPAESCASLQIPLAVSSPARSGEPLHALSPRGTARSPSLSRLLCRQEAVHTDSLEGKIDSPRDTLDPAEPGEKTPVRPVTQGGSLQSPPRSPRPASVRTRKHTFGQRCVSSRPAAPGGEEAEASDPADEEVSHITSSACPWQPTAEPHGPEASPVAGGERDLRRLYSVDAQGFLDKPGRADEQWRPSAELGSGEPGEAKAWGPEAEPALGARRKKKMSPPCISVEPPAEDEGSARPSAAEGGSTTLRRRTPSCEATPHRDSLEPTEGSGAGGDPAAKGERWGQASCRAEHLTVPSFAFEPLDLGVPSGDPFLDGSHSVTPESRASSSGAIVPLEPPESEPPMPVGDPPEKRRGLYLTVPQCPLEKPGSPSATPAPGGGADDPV

Row | Compound | AC50 [2] | IC50 [3] | IC50 [4] | IC50 [10] | IC50 [11] | IC50 [12] | IC50 [13] | other results
1 | O=C(c1cc(O)c(O)c([N+](=O)[O-])c1)c1ccccc1F | 95 µM (active) |  |  |  |  |  |  | AC50 [1]: 3.2 µM (active)
2 | Cc1cc(NCc2ccc(F)cc2Cl)n2nnnc2n1 |  | 15.7 µM (active) | 12.1 µM (active) |  |  |  |  | 
3 | Oc1nc(Nc2ccc(Cl)cc2Cl)sc1/C=C1\C=Nc2ccccc21 |  | 2.64 µM (active) | 1.5 µM (active) |  |  |  |  | EC50 [5]: 1.27 µM (active); EC50 [6]: 2.61 µM (active); IC50 [7]: 36.5 µM (active); IC50 [8]: > 100 µM (inactive); IC50 [9]: 38.3 µM (active)
4 | CCOC(=O)C1Nc2c(O)cc(C)cc2C2C=CCC12 (stereo unspecified) |  |  |  | > 100 µM (not active) | > 100 µM (not active) | > 100 µM (inactive) | > 100 µM (inactive) | 
5 | O=C(CSc1nnc2scc(-c3ccccc3)n12)Nc1nsc(-c2ccccc2)n1 |  |  |  | 12.8 µM (active) | 27.4 µM (active) | 6.9 µM (active) | 9.41 µM (active) | IC50 [14]: > 100 µM (not active); IC50 [15]: > 100 µM (not active); IC50 [16]: 11 µM (active); IC50 [17]: 6.59 µM (active)
6 | O=C(Oc1ccc(-c2ccccc2)cc1)c1cccc2c1NC(C(=O)O)C1CC=CC21 (stereo unspecified) |  |  |  | 5.62 µM (active) | > 100 µM (not active) | 3.4 µM (active) | 3.5 µM (active) | IC50 [14]: > 100 µM (not active); IC50 [15]: > 100 µM (not active)
7 | Cc1ccccc1NC(=O)/C(=C/c1ccccc1)c1ccccc1 |  | 10.8 µM (active) | 9.58 µM (active) |  |  |  |  | EC50 [18]: 9.09 µM (active); AC50 [19]: 14.1 µM (inconclusive)
8 | COc1ccccc1C1CCN(c2cc(O)ccc2[N+](=O)[O-])CC1 |  |  |  |  |  |  |  | AC50 [20]: 4.38 µM (active)
9 | CN(c1ccccc1)S(=O)(=O)c1cccc(NC(=O)CN2C(=O)NC3(CCCC3)C2=O)c1 | 40.1 µM (active) |  |  |  |  |  |  | 
10 | Cc1cc(C)nc(SC(C)C(=O)N/N=C/c2cccs2)n1 (stereo unspecified) | 22.1 µM (active) |  |  |  |  |  |  | 
